Assay results from patent US11590139B2, “Substituted aminopurine compounds, compositions thereof, and methods of treatment therewith” (Signal Pharmaceuticals, LLC, priority 2014, dated 2023).
pIC50: −log10 of the molar value. Like-named read-outs stand apart in the source and are kept apart here.

System: Lox-IMVI melanoma cell line
Test: Lox-IMVI anti-proliferative assay (growth inhibition, Cell Titer-Glo)
Format: cell-based, human
Settings: Homo sapiens
In short: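 Cells grown in RPMI + 10% FBS were exposed to compound at 0.5 nM to 10 μM (10-point, 3-fold dilution, duplicate, 0.2% DMSO final) for 72 h at 37 °C, 5% CO2. Viability was read by ATP luminescence at t0 and 72 h. IC50 came from a four-parameter logistic fit normalized to DMSO control.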

[1] = IC50 activity level in the cell-based Lox-IMVI anti-proliferative assay, read-out: Activity
[2] = Lox-IMVI melanoma cell line, anti-proliferative assay, read-out: Activity (IC50 activity level)
[3] = Lox-IMVI anti-proliferative assay, IC50 activity level, read-out: Activity

Row | pIC50 [1] | SMILES | also measured
1 | 6.00 to 6.30 | N#Cc1ccc(Nc2nc3cnc(NC4CCOCC4)nc3n2[C@H]2CC[C@@H](C(N)=O)CC2)c(Cl)c1 [Example 248, (1s,4s)-4-(8-(2-chloro-4-cyanophenylamino)-2-(tetrahydro-2H-pyran-4-ylamino)-9H-purin-9-yl)cyclohexanecarboxamide] | –
2 | – | N#Cc1cc(Cl)c(Nc2nc3cnc(N[C@@H]4CCCN(C(=O)Nc5ccccc5)C4)nc3n2[C@H]2CC[C@@H](C(N)=O)CC2)c(Cl)c1 [Example 780, (R)-3-(9-((1s,4S)-4-carbamoylcyclohexyl)-8-(2,6-dichloro-4-cyanophenylamino)-9H-purin-2-ylamino)-N-phenylpiperidine-1-carboxamide] | pIC50 [2]: < 6.00
3 | < 6.00 | NC(=O)[C@H]1CC[C@@H](n2c(Nc3c(F)ccc(Cl)c3F)nc3cnc(N[C@@H]4CCC[C@H](O)C4)nc32)CC1 [Example 362, (1S,4s)-4-(8-(3-chloro-2,6-difluorophenylamino)-2-((1R,3S)-3-hydroxycyclohexylamino)-9H-purin-9-yl)cyclohexanecarboxamide] | –
4 | – | NC(=O)[C@H]1CC[C@@H](n2c(Nc3c(Cl)cc(F)cc3Cl)nc3cnc(N[C@@H]4CCCN(C(=O)Nc5ccccc5)C4)nc32)CC1 [Example 784, (R)-3-(9-((1s,4S)-4-carbamoylcyclohexyl)-8-(2,6-dichloro-4-fluorophenylamino)-9H-purin-2-ylamino)-N-phenylpiperidine-1-carboxamide] | pIC50 [2]: < 6.00
5 | < 6.00 | NC(=O)[C@H]1CC[C@@H](n2c(Nc3c(F)cccc3F)nc3cnc(NC4CCC(F)(F)CC4)nc32)CC1 [Example 289, (1s,4s)-4-(2-(4,4-difluorocyclohexylamino)-8-(2,6-difluorophenylamino)-9H-purin-9-yl)cyclohexanecarboxamide] | –
6 | > 6.60 | NC(=O)[C@H]1CC[C@@H](n2c(Nc3c(F)cc(F)cc3Cl)nc3cnc(NC4CCOCC4)nc32)CC1 [Example 53] | –
7 | < 6.00 | NC(=O)[C@H]1CC[C@@H](n2c(Nc3c(F)cc(Cl)cc3F)nc3cnc(N[C@@H]4CC[C@H](O)C4)nc32)CC1 [Example 328, (1S,4s)-4-(8-(4-chloro-2,6-difluorophenylamino)-2-((1R,3S)-3-hydroxycyclopentylamino)-9H-purin-9-yl)cyclohexanecarboxamide] | –
8 | < 6.00 | NC(=O)[C@H]1CC[C@@H](n2c(Nc3c(F)cc(Cl)cc3F)nc3cnc(N[C@H]4CCC[C@@H]4O)nc32)CC1 [Example 269, (1R,4s)-4-(8-(4-chloro-2,6-difluorophenylamino)-2-((1S,2S)-2-hydroxycyclopentylamino)-9H-purin-9-yl)cyclohexanecarboxamide] | –
9 | < 6.00 | NC(=O)[C@H]1CC[C@@H](n2c(Nc3c(Cl)cc(F)cc3Cl)nc3cnc(NC4CC5(COC5)C4)nc32)CC1 [Example 193, (1s,4s)-4-(2-(2-oxaspiro[3.3]heptan-6-ylamino)-8-(2,6-dichloro-4-fluorophenylamino)-9H-purin-9-yl)cyclohexanecarboxamide] | –
10 | < 6.00 | CC(C)(C)OC(=O)N1CC[C@H](Nc2ncc3nc(Nc4c(F)cc(Cl)cc4F)n([C@H]4CC[C@@H](C(N)=O)CC4)c3n2)[C@H](F)C1 [Example 155, (3R,4S)-tert-butyl 4-(9-((1s,4R)-4-carbamoylcyclohexyl)-8-(4-chloro-2,6-difluorophenylamino)-9H-purin-2-ylamino)-3-fluoropiperidine-1-carboxylate] | –
11 | – | CNC(=O)N1CCC[C@@H](Nc2ncc3nc(Nc4c(Cl)cc(C(F)(F)F)cc4Cl)n([C@H]4CC[C@@H](C(N)=O)CC4)c3n2)C1 [Example 796, (R)-3-(9-((1s,4S)-4-carbamoylcyclohexyl)-8-(2,6-dichloro-4-(trifluoromethyl)phenylamino)-9H-purin-2-ylamino)-N-methylpiperidine-1-carboxamide] | pIC50 [2]: < 6.00
12 | – | NC(=O)[C@H]1CC[C@@H](n2c(Nc3c(Cl)cc(Br)cc3Cl)nc3cnc(NC4CCC(F)(F)CC4)nc32)CC1 [Example 691, (1s,4s)-4-(8-(4-bromo-2,6-dichlorophenylamino)-2-(4,4-difluorocyclohexylamino)-9H-purin-9-yl)cyclohexanecarboxamide] | pIC50 [2]: 6.00 to 6.30
13 | 6.30 to 6.60 | NC(=O)[C@H]1CC[C@@H](n2c(Nc3c(F)cc(Cl)cc3F)nc3cnc(NC4CCC(F)(F)CC4)nc32)CC1 [Example 200, (1s,4s)-4-(8-(4-chloro-2,6-difluorophenylamino)-2-(4,4-difluorocyclohexylamino)-9H-purin-9-yl)cyclohexanecarboxamide] | –
14 | – | NC(=O)[C@H]1CC[C@@H](n2c(Nc3c(F)cc(Cl)cc3F)nc3cnc(NC[C@@H]4CCCC[C@H]4O)nc32)CC1 [Example 663, (1R,4s)-4-(8-(4-chloro-2,6-difluorophenylamino)-2-(((1S,2R)-2-hydroxycyclohexyl)methylamino)-9H-purin-9-yl)cyclohexanecarboxamide] | pIC50 [2]: < 6.00
15 | – | C[C@@H]1COCC[C@@H]1Nc1ncc2nc(Nc3c(Cl)cc(Cl)cc3Cl)n([C@H]3CC[C@@H](C(N)=O)CC3)c2n1 [Example 502, (1R,4s)-4-(2-((3S,4S)-3-methyltetrahydro-2H-pyran-4-ylamino)-8-(2,4,6-trichlorophenylamino)-9H-purin-9-yl)cyclohexanecarboxamide] | pIC50 [3]: 6.30 to 6.60
16 | – | NC(=O)[C@H]1CC[C@@H](n2c(Nc3c(Cl)cc(Br)cc3Cl)nc3cnc(NC4CCOCC4)nc32)CC1 [Example 690, (1s,4s)-4-(8-(4-bromo-2,6-dichlorophenylamino)-2-(tetrahydro-2H-pyran-4-ylamino)-9H-purin-9-yl)cyclohexanecarboxamide] | pIC50 [2]: > 6.60
17 | – | C[C@]1(C(N)=O)CC[C@@H](n2c(Nc3c(Cl)cc(Cl)cc3Cl)nc3cnc(NC4CCC4)nc32)CC1 [Example 603, (1s,4s)-4-(2-(cyclobutylamino)-8-(2,4,6-trichlorophenylamino)-9H-purin-9-yl)-1-methylcyclohexanecarboxamide] | pIC50 [2]: > 6.60
18 | – | C[C@@H]1COCC[C@H]1Nc1ncc2nc(Nc3c(F)cc(Cl)cc3Cl)n([C@H]3CC[C@@H](C(N)=O)CC3)c2n1 [Example 503, (1S,4s)-4-(8-(2,4-dichloro-6-fluorophenylamino)-2-((3S,4R)-3-methyltetrahydro-2H-pyran-4-ylamino)-9H-purin-9-yl)cyclohexanecarboxamide] | pIC50 [3]: > 6.60
19 | 6.30 to 6.60 | NC(=O)[C@H]1CC[C@@H](n2c(Nc3c(F)cc(Cl)cc3F)nc3cnc(N[C@@H]4CC[C@@H](O)C4)nc32)CC1 [Example 215, (1S,4s)-4-(8-(4-chloro-2,6-difluorophenylamino)-2-((1R,3R)-3-hydroxycyclopentylamino)-9H-purin-9-yl)cyclohexanecarboxamide] | –
20 | < 6.00 | CC[C@H](CO)Nc1ncc2nc(Nc3c(Cl)cc(F)cc3Cl)n([C@H]3CC[C@@H](C(N)=O)CC3)c2n1 [Example 126, (1S,4s)-4-(8-(2,6-dichloro-4-fluorophenylamino)-2-((R)-1-hydroxybutan-2-ylamino)-9H-purin-9-yl)cyclohexanecarboxamide] | –
21 | – | C[C@@H](CO)Nc1ncc2nc(Nc3c(Cl)cc(Cl)cc3Cl)n([C@H]3CC[C@](C)(C(N)=O)CC3)c2n1 [Example 481, (1S,4r)-4-(2-((S)-1-hydroxypropan-2-ylamino)-8-(2,4,6-trichlorophenylamino)-9H-purin-9-yl)-1-methylcyclohexanecarboxamide] | pIC50 [3]: < 6.00
22 | 6.00 to 6.30 | NC(=O)[C@H]1CC[C@@H](n2c(Nc3c(Cl)cc(Cl)cc3Cl)nc3cnc(N[C@H]4CCOC4)nc32)CC1 [Example 87, (1R,4s)-4-(2-((S)-tetrahydrofuran-3-ylamino)-8-(2,4,6-trichlorophenylamino)-9H-purin-9-yl)cyclohexanecarboxamide] | –
23 | < 6.00 | NC(=O)[C@H]1CC[C@@H](n2c(Nc3c(F)cc(F)cc3F)nc3cnc(N[C@H]4CCC[C@@H]4O)nc32)CC1 [Example 266, (1R,4s)-4-(2-((1S,2S)-2-hydroxycyclopentylamino)-8-(2,4,6-trifluorophenylamino)-9H-purin-9-yl)cyclohexanecarboxamide] | –
24 | 6.30 to 6.60 | NC(=O)[C@H]1CC[C@@H](n2c(Nc3c(F)cc(F)cc3F)nc3cnc(N[C@H]4CCOC[C@H]4F)nc32)CC1 [Example 306, (1R,4s)-4-(2-((3S,4S)-3-fluorotetrahydro-2H-pyran-4-ylamino)-8-(2,4,6-trifluorophenylamino)-9H-purin-9-yl)cyclohexanecarboxamide] | –
25 | < 6.00 | CC(C)(C)OC(=O)N1CCC[C@@H](Nc2ncc3nc(Nc4c(Cl)cccc4Cl)n([C@H]4CC[C@@H](C(N)=O)CC4)c3n2)C1 [Example 160, (R)-tert-butyl 3-(9-((1s,4S)-4-carbamoylcyclohexyl)-8-(2,6-dichlorophenylamino)-9H-purin-2-ylamino)piperidine-1-carboxylate] | –
26 | – | NC(=O)[C@H]1CC[C@@H](n2c(Nc3c(F)cc(F)cc3Cl)nc3cnc(N[C@@H]4CCCC[C@H](O)C4)nc32)CC1 [Example 437, (1S,4s)-4-(8-(2-chloro-4,6-difluorophenylamino)-2-((1R,3S)-3-hydroxycycloheptylamino)-9H-purin-9-yl)cyclohexanecarboxamide] | pIC50 [3]: < 6.00
27 | < 6.00 | Cc1c(Cl)ccc(Nc2nc3cnc(NC4CCOCC4)nc3n2[C@H]2CC[C@@H](C(N)=O)CC2)c1F [Example 102, (1s,4s)-4-(8-(4-chloro-2-fluoro-3-methylphenylamino)-2-(tetrahydro-2H-pyran-4-ylamino)-9H-purin-9-yl)cyclohexanecarboxamide] | –
28 | 6.30 to 6.60 | NC(=O)[C@H]1CC[C@@H](n2c(Nc3c(F)cc(F)cc3F)nc3cnc(NC4CCC(F)(F)CC4)nc32)CC1 [Example 288, (1s,4s)-4-(2-(4,4-difluorocyclohexylamino)-8-(2,4,6-trifluorophenylamino)-9H-purin-9-yl)cyclohexanecarboxamide] | –
